# Data reported in US12338203B2 (TAISHO PHARMACEUTICAL CO., LTD., priority 2019, dated 2025).
# Target: T1, human LPAR1 (Homo sapiens, UniProt Q92633)
# T1 construct: expressed in transfected cells
# Assay: Test Example 1: antagonism against response of LPA-induced increase in intracellular Ca2+ concentration in RH7777 cells stably expressing human LPAR1
# Format: cell-based
# Settings: RH7777 cells stably expressing human LPAR1; Fluo-4 fluorescence, FDSS6000; read-out: IC50 value (concentration producing 50% antagonism against response of LPA-induced increase in intracellular Ca2+ concentration) (converted)
# Description: (1) Preparation of RH7777 cells stably expressing human LPAR1
# The human LPAR1 expression vector was transfected into RH7777 cells to acquire human LPAR1 expressing cells.
# (2) Test of antagonism against response of LPA-induced increase in intracellular Ca^2+ concentration
# Cells stably expressing human LPAR1 were used for a test of antagonism against response of LPA-induced increase in intracellular Ca^2+ concentration.
# The cells were seeded onto the Poly-D-Lysine 96 well black plate and incubated overnight. […] 50 μL of the Basal Buffer (1×HBSS, 20 mM HEPES, 2.5 mM Probenecid, 0.05% BSA, 0.25 mg/mL Amaranth, pH 7.4) containing the test compound was added thereto, followed by incubation at 37° C. for 30 minutes. In FDSS6000 (Hamamatsu Photonics K.K.), LPAs were added, and the change in intracellular Ca^2+ concentration was detected using the fluorescence value of a wavelength of 540 nm by an excitation wavelength of 480 nm as an indicator. […] The Rmax under […] without the test compound was used as the control value. The Rmax under Basal Buffer stimulation with no LPAs or test compounds was used as the basal value.
# The percentage (%) of increase in intracellular Ca^2+ concentration was calculated by dividing the value obtained by subtracting the basal value from Rmax in the presence of LPAs and each concentration of the test compound by the value obtained by subtracting the basal value from the control value. The concentration of each test compound was plotted on the X axis and the percentage (%) of increase in intracellular Ca^2+ concentration was plotted on the Y axis, and the IC50 value was calculated by nonlinear regression using XLfit.
# T1 sequence (Q92633 whole entry): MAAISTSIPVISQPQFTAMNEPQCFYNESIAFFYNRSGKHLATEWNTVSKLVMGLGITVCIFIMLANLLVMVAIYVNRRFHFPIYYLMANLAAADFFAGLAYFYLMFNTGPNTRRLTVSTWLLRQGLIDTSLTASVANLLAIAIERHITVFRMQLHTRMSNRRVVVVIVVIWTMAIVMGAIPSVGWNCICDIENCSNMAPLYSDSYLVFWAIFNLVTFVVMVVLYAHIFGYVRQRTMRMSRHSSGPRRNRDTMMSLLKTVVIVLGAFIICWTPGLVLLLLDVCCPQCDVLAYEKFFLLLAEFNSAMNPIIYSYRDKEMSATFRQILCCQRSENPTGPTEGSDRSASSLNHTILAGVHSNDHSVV
row,Compound,IC50 [nM]
1,CCOc1cc(C(C)N(CCOCc2ccccc2)C(=O)NC2(C(=O)O)CC(OC)C2)c(Cl)c(OCC)c1C1CC1 (stereo not drawn) [Example 5-206],0.853
2,CCOc1cc(C(C)N(CCCCc2ccccc2)C(=O)NC2(C(=O)O)CC(F)(F)C2)cc(OCC)c1C(O)C(F)(F)F (stereo not drawn) [Example 1-52],7.96
3,COc1cc([C@@H](C)N(CCOCc2ccccc2)C(=O)NC2(C(=O)O)CC(OC)C2)cc(OC)c1C(C)=O (stereo partly drawn) [Example 5-121],12.1
4,CCOC1CC(NC(=O)N(CCOCc2ccccc2)C(C)c2cc(OC)c(C3CC3)c(OC)c2C)(C(=O)O)C1 (stereo not drawn) [Example 5-165],2.05
5,COc1cc(C(C)N(CCOC(C)c2ccccc2)C(=O)NC2(C(=O)O)CCC2)c(C)c(OC)c1C1CC1 (stereo not drawn) [Example 5-139],2.95
6,CCOc1cc(C(C)N(CCO[C@@H](C)c2ccccc2)C(=O)NC2(C(=O)OC)CC(F)(F)C2)c(Cl)c(OCC)c1C(C)=O (stereo partly drawn) [Example 6-7],443
7,CCOc1cc(C(C)N(CCCCc2ccccc2)C(=O)NC2(C(=O)O)CC(F)(F)C2)cc(OCC)c1C(O)CC (stereo not drawn) [Example 1-33],7.13
8,CCOc1c(C(C)=O)ccc([C@@H](C)N(CCCC(F)(F)c2ccccc2)C(=O)N[C@]2(C(=O)O)C[C@H](OC)C2)c1C [Example 4-68],8.85
9,CCOc1c(C(C)=O)ccc([C@@H](C)N(CCO[C@@H](C)c2ccccc2)C(=O)NC2(C(=O)O)CCC2)c1C [Example 4-116],3.91
10,CCOc1cc([C@@H](C)N(CCCCc2ccccc2)C(=O)NC2(C(=O)O)CCC2)cc(OCC)c1C [Example 1-24],3.54
11,CCOc1cc([C@@H](C)N(CCCCc2ccccc2)C(=O)NCC2(C(=O)O)CC2)cc(OCC)c1C(C)=O [Example 1-144],28.7
12,CCOc1c(C(C)=O)ccc([C@@H](C)N(CCCCc2ccccc2)C(=O)NC2(C(=O)O)CC(OCC)C2)c1C (stereo partly drawn) [Example 1-103],4.57
13,CCOc1c(C(C)=O)ccc([C@@H](C)N(CCCC(F)(F)c2ccccc2)C(=O)N[C@]2(C(=O)O)C[C@@H](OC)C2)c1C [Example 4-63],3.94
14,CCOc1cc(C(C)N(CCCCc2ccccc2)C(=O)NC2(C(=O)O)CC(F)(F)C2)cc(OCC)c1C(F)F (stereo not drawn) [Example 1-51],3.52
15,CCOc1cc([C@@H](C)N(CCCCc2ccccc2)C(=O)NC2(C(=O)O)CCOCC2)c(Cl)c(OCC)c1C(C)=O [Example 5-51],2.56
16,CCCOc1cc(OC)cc(C(C)N(CCCCc2ccccc2)C(=O)NC2(C(=O)O)CC(F)(F)C2)c1 (stereo not drawn) [Example 5-16],8.97
17,COc1cc(OC)cc(C(C)N(CCCCc2ccccc2)C(=O)NC2(C(=O)O)CC(F)(F)C2)c1 (stereo not drawn) [Example 5-13],4.32
18,"CCOc1cc([C@@H](C)N(CCCC(F)(F)c2ccccc2)C(=O)N[C@]2(C(=O)O)C[C@@H](OCC)C2)cc(OCC)c1C(C)=O [Example 4-44, Trans-1-({[(1R)-1-(4-Acetyl-3,5-Diethoxyphenyl)Ethyl](4,4-Difluoro-4-Phenylbutyl) Carbamoyl}Amino)-3-Ethoxycyclobutane-1-Carboxylic Acid]",3.34
19,CCOc1cc([C@@H](C)N(CCO[C@@H](C)c2ccccc2)C(=O)NC2(C(=O)O)CCC2)cc(OCC)c1C(C)=O [Example 4-114],2.54
20,CCOC(=O)C1(NC(=O)N(CCO[C@@H](C)c2ccccc2)C(C)c2cc(OCC)c(C(C)=O)c(OCC)c2Cl)CC(OCC)C1 (stereo partly drawn) [Example 6-10],1040
21,CCOc1cc(C(C)N(CCOCc2ccccc2)C(=O)NC2(C(=O)O)CC(F)(F)C2)c(Cl)c(OCC)c1C1CC1 (stereo not drawn) [Example 5-197],1.04
22,"CCOc1cc([C@@H](C)N(CCCCc2ccccc2)C(=O)NC2(C(=O)O)CC(F)(F)C2)cc(OCC)c1C(C)O (single isomer, unassigned) [Example 1-35]",1.81
23,CCOc1cc(C(C)N(CCOCc2ccccc2)C(=O)NC2(C(=O)O)CC(OCC)C2)c(Cl)c(OCC)c1C1CC1 (stereo not drawn) [Example 5-221],0.695
24,CCCOc1cc(OCCC)cc(C(C)N(CCCCc2ccccc2)C(=O)NC2(C(=O)O)CC(F)(F)C2)c1 (stereo not drawn) [Example 5-18],11
25,CCOc1cc([C@@H](C)N(CCO[C@H](C)c2ccccc2)C(=O)NC2(C(=O)O)CC(F)(F)C2)cc(OCC)c1C(C)=O [Example 4-149],3.4
26,CCOc1cc([C@@H](C)N(CCO[C@@H](C)c2ccccc2)C(=O)NC2(C(=O)O)CC(OCC)C2)c(C)c(OCC)c1C(C)=O (stereo partly drawn) [Example 5-119],2.91

row,Compound,IC50 [nM]
1,CCOc1cc([C@@H](C)N(CCCC(F)(F)c2ccccc2)C(=O)NC2(C(=O)O)CCOCC2)cc(OCC)c1C1(O)CC1 [Example 4-74],50.5
2,CCOc1cc([C@@H](C)N(CCCCc2ccccc2)C(=O)NC2(C(=O)O)CCC2)cc(OCC)c1C(C)=O [Example 1-20],0.621
3,CCOc1cc([C@@H](C)N(CCO[C@@H](C)c2ccccc2)C(=O)N[C@]2(C(=O)O)C[C@@H](OC)C2)cc(OCC)c1C(C)=O [Example 4-121],3.35
4,CCOc1cc([C@@H](C)N(CCCCc2ccccc2)C(=O)NC2(C(=O)O)CCOCC2)cc(OCC)c1C(C)=O [Example 1-151],3.57
5,CCOc1cc(C(C)N(CCOCc2ccccc2)C(=O)NC2(C(=O)O)CC(OCC)C2)cc(OCC)c1C1CC1 (stereo not drawn) [Example 5-219],0.813
6,CCOc1cc([C@@H](C)N(CCCCc2ccccc2)C(=O)NC2(C(=O)O)CC(N3CCCC3)C2)cc(OCC)c1C (stereo partly drawn) [Example 1-108],512
7,CCOc1c(C(C)=O)ccc([C@@H](C)N(CCO[C@H](C)c2ccccc2)C(=O)NC2(C(=O)O)CC2)c1C [Example 4-147],11.6
8,"CCOc1cc([C@@H](C)N(CCCCc2ccccc2)C(=O)NC2(C(=O)O)CNC2)cc(OCC)c1C [Example 1-158, 3-({[(1R)-1-(3,5-Diethoxy-4-Methylphenyl)Ethyl](4-Phenylbutyl) Carbamoyl}Amino) Azetidine-3-Carboxylic Acid]",294
9,CCOc1c(C2CC2)ccc([C@@H](C)N(CCO[C@H](C)c2ccccc2)C(=O)NC2(C(=O)O)CC(F)(F)C2)c1C [Example 4-172],2.43
10,"CCOc1cc([C@@H](C)N(CCO[C@@H](C)c2ccccc2)C(=O)NC2(C(=O)O)CC(OC)C2)cc(OCC)c1C1CC1 (stereo partly drawn) [Example 4-129, cis-1-[([(1R)-1-(4-cyclopropyl-3,5-diethoxyphenyl)ethyl]{2-[(1S)-1-phenylethoxy]ethyl}carbamoyl)amino]-3-methoxycyclobutane-1-carboxylic acid]",1.03
11,CCO[C@H]1C[C@@](NC(=O)N(CCO[C@@H](C)c2ccccc2)C(C)c2cc(OC)c(C(C)=O)c(OC)c2)(C(=O)O)C1 (stereo partly drawn) [Example 5-126],26.1
12,"CCOc1cc([C@@H](C)N(CCO[C@@H](C)c2ccccc2)C(=O)NC2(C(=O)OC)CC2)c(Cl)c(OCC)c1C(C)=O [Example 6-3, Methyl 1-[([(1R)-1-(4-Acetyl-2-Chloro-3,5-Diethoxyphenyl)Ethyl]{2-[(1S)-1-Phenylethoxy]Ethyl}Carbamoyl)Amino]Cyclopropane-1-Carboxylate]",672
13,CCOc1cc([C@@H](C)N(CCC2Cc3ccccc3C2)C(=O)NC2(C(=O)O)CC(OC)C2)c(C)c(OCC)c1C(C)=O (stereo partly drawn) [Example 4-24],5.57
14,CCOc1cc(C(C)N(CCCCc2ccccc2)C(=O)NC2(C(=O)O)CC(F)(F)C2)cc2c1CCO2 (stereo not drawn) [Example 5-92],23.1
15,CCOc1cc([C@@H](C)N(CCCC(F)(F)c2ccccc2)C(=O)NC2(C(=O)O)CC2)cc(OCC)c1C(C)=O [Example 4-45],1.59
16,CCOc1cc([C@@H](C)N(CCO[C@@H](C)c2ccccc2)C(=O)NC2(C(=O)O)CC2)cc(OCC)c1C1CC1 [Example 4-112],1.49
17,CCOc1cc(C(C)N(CCCCc2ccccc2)C(=O)NC2(c3nn[nH]n3)CCC2)cc(OCC)c1C(C)=O (stereo not drawn) [Example 10-6],1.88
18,CCOc1cc([C@@H](C)N(CCO[C@@H](C)c2ccccc2)C(=O)N[C@]2(C(=O)O)C[C@@H](OCC)C2)cc(OCC)c1C1(O)CC1 [Example 4-137],21.9
19,CCOc1cc(C(C)N(CCCCc2ccccc2)C(=O)NC2CCC[C@@H]2C(=O)O)cc(OCC)c1C (stereo partly drawn) [Example 1-137],102
20,CCOc1c(C(C)=O)ccc([C@@H](C)N(CCO[C@H](C)c2ccccc2)C(=O)NC2(C(=O)O)CC(OCC)C2)c1C (stereo partly drawn) [Example 4-158],4.39
21,CCCCC(NC(=O)N(CCCCc1ccccc1)[C@H](C)c1cc(OCC)c(C)c(OCC)c1)C(=O)O (stereo partly drawn) [Example 1-4],25.5
22,CCOc1cc([C@@H](C)N(CCO[C@H](C)c2ccccc2)C(=O)N[C@]2(C(=O)O)C[C@@H](OC)C2)c(Cl)c(OCC)c1C(C)=O [Example 5-35],3.97
23,CCOc1cc([C@@H](C)N(CCO[C@@H](C)c2ccccc2)C(=O)N[C@]2(C(=O)O)C[C@@H](OC)C2)cc(OCC)c1C1CC1 [Example 4-128],1.08
24,CCOc1cc([C@@H](C)N(CCCc2ccccc2)C(=O)NC2(C(=O)O)CC(F)(F)C2)cc(OCC)c1C [Example 4-36],5.7
25,COc1cc(C(C)N(CCOCc2ccccc2)C(=O)NC2(C(=O)O)CCOCC2)c(C)c(OC)c1C1CC1 (stereo not drawn) [Example 5-177],2.77
